From ChEMBL document CHEMBL3885881, “DrugMatrix”
Several values for one entry are separate records, joined by “and”; a condition that tells them apart may be missing. Equal values may be shown once.

Organism: Rattus norvegicus
Experiment: DrugMatrix - Regimen: Daily Repeat
Format: toxicity, organism-based, Sprague-Dawley
Set-up: regimen Daily Repeat, gender Male, age 6-8 weeks
Conditions: in vivo, ip, route intraperitoneal, vehicle 100 % SALINE; for ABSOLUTE BASOPHIL / ABSOLUTE EOSINOPHIL / ABSOLUTE LYMPHOCYTE / ABSOLUTE MONOCYTE / ABSOLUTE SEGMENTED NEUTROPHIL / BASOPHIL / EOSINOPHIL / ERYTHROCYTE COUNT / HEMATOCRIT / HEMOGLOBIN / LEUKOCYTE COUNT / LYMPHOCYTE / MEAN CORPUSCULAR HEMOGLOBIN / MEAN CORPUSCULAR HEMOGLOBIN CONCENTRATION / MEAN CORPUSCULAR VOLUME / MONOCYTE / NEUTROPHIL / PLATELET COUNT: tissue Blood; for ALANINE AMINOTRANSFERASE / ALBUMIN / ALKALINE PHOSPHATASE / ASPARTATE AMINOTRANSFERASE / BLOOD UREA NITROGEN / CARBON DIOXIDE / CHOLESTEROL / CREATINE PHOSPHOKINASE / CREATININE / GLUCOSE / LACTATE DEHYDROGENASE / LIPASE / PHOSPHORUS / POTASSIUM / SODIUM / TOTAL BILIRUBIN / TOTAL PROTEIN / URIC ACID / CHLORIDE: tissue Plasma
[1] = 0 mg/kg, 120 h, dose level Control, time 5 day
[2] = 0 mg/kg, […], dose level Control, time 14 day
[3] = 0 mg/kg, […], dose level Control, time 28 day
[4] = 40 mg/kg, 120 h, dose level High, time 5 day

Sequence: GENTAMICIN
- ABSOLUTE BASOPHIL [1]: 32 cells/µL
- ABSOLUTE EOSINOPHIL [1]: 110 cells/µL
- ABSOLUTE LYMPHOCYTE [1]: 6630 cells/µL
- ABSOLUTE MONOCYTE [1]: 140 cells/µL
- ABSOLUTE SEGMENTED NEUTROPHIL [1]: 1170 cells/µL
- BASOPHIL [1]: 0.38% and 0.35%
- EOSINOPHIL [1]: 1.28% and 0.62%
- ERYTHROCYTE COUNT [1]: 7.45 x10E6/uL and 7.26 x10E6/uL
- HEMATOCRIT [1]: 45.74% and 47.97%
- HEMOGLOBIN [1]: 14.72 G/DL and 15.38 G/DL
- LEUKOCYTE COUNT [1]: 8.11 x10E3/uL and 8.68 x10E3/uL
- LYMPHOCYTE [1]: 81.3% and 86.77%
- MEAN CORPUSCULAR HEMOGLOBIN [1]: 19.76 pg and 21.18 pg
- MEAN CORPUSCULAR HEMOGLOBIN CONCENTRATION [1]: 32.16 G/DL and 32.05 G/DL
- MEAN CORPUSCULAR VOLUME [1]: 61.38 fL and 66.15 fL
- MONOCYTE [1]: 1.76% and 1.57%
- NEUTROPHIL [1]: 14.9% and 9.53%
- PLATELET COUNT [1]: 1322.4 x10E3/uL and 1786 x10E3/uL
- ALANINE AMINOTRANSFERASE [1]: 25.8 u/L and 20.5 u/L
- ALBUMIN [1]: 3.64 G/DL and 4.35 G/DL
- ALKALINE PHOSPHATASE [1]: 300 u/L
- ASPARTATE AMINOTRANSFERASE [1]: 81.4 u/L and 86.75 u/L
- BLOOD UREA NITROGEN [1]: 14.4 mg/dL and 17 mg/dL
- CARBON DIOXIDE [1]: 29 mmol/L
- CHOLESTEROL [1]: 69.2 mg/dL and 51.25 mg/dL
- CREATINE PHOSPHOKINASE [1]: 303.2 u/L and 384.75 u/L
- CREATININE [1]: 0.56 mg/dL and 0.47 mg/dL
- GLUCOSE [1]: 125.4 mg/dL and 128.75 mg/dL
- LACTATE DEHYDROGENASE [1]: 105.4 u/L and 145 u/L
- LIPASE [1]: 22.4 u/L and 13.25 u/L
- PHOSPHORUS [1]: 11.8 mg/dL
- POTASSIUM [1]: 5.52 MEQ/L and 6.58 MEQ/L
- SODIUM [1]: 147 MEQ/L and 151 MEQ/L
- TOTAL BILIRUBIN [1]: 0.2 mg/dL and 0.33 mg/dL
- TOTAL PROTEIN [1]: 6.1 G/DL and 6.53 G/DL
- URIC ACID [1]: 1.06 mg/dL and 1.95 mg/dL
- ABSOLUTE BASOPHIL [2]: 130 cells/µL
- ABSOLUTE EOSINOPHIL [2]: 140 cells/µL
- ABSOLUTE LYMPHOCYTE [2]: 13500 cells/µL
- ABSOLUTE MONOCYTE [2]: 400 cells/µL
- ABSOLUTE SEGMENTED NEUTROPHIL [2]: 2330 cells/µL
- HEMATOCRIT [2]: 45.98%
- HEMOGLOBIN [2]: 15.17 G/DL
- MEAN CORPUSCULAR VOLUME [2]: 59.4 fL
- NEUTROPHIL [2]: 14.14%
- ABSOLUTE BASOPHIL [3]: 91 cells/µL
- ABSOLUTE EOSINOPHIL [3]: 110 cells/µL
- ABSOLUTE LYMPHOCYTE [3]: 9910 cells/µL
- ABSOLUTE MONOCYTE [3]: 210 cells/µL
- ABSOLUTE SEGMENTED NEUTROPHIL [3]: 1560 cells/µL
- BASOPHIL [3]: 0.77%
- EOSINOPHIL [3]: 0.92%
- ERYTHROCYTE COUNT [3]: 8.21 x10E6/uL
- HEMATOCRIT [3]: 47.53%
- HEMOGLOBIN [3]: 15.65 G/DL
- LEUKOCYTE COUNT [3]: 11.91 x10E3/uL
- LYMPHOCYTE [3]: 83.34%
- MEAN CORPUSCULAR HEMOGLOBIN [3]: 19.07 pg
- MEAN CORPUSCULAR HEMOGLOBIN CONCENTRATION [3]: 32.93 G/DL
- MEAN CORPUSCULAR VOLUME [3]: 57.9 fL
- MONOCYTE [3]: 1.68%
- NEUTROPHIL [3]: 12.97%
- PLATELET COUNT [3]: 1323.8 x10E3/uL
- ALBUMIN [2]: 3.66 G/DL
- CARBON DIOXIDE [2]: 25 mmol/L
- CHLORIDE [2]: 107 MEQ/L
- CREATINE PHOSPHOKINASE [2]: 410.25 u/L
- SODIUM [2]: 149.2 MEQ/L
- URIC ACID [2]: 0.94 mg/dL
- ALANINE AMINOTRANSFERASE [3]: 30 u/L
- ALBUMIN [3]: 3.71 G/DL
- ALKALINE PHOSPHATASE [3]: 186.8 u/L
- ASPARTATE AMINOTRANSFERASE [3]: 78.2 u/L
- BLOOD UREA NITROGEN [3]: 14.2 mg/dL
- CHOLESTEROL [3]: 44.9 mg/dL
- CREATINE PHOSPHOKINASE [3]: 334.3 u/L
- CREATININE [3]: 0.6 mg/dL
- GLUCOSE [3]: 147.2 mg/dL
- LACTATE DEHYDROGENASE [3]: 123.1 u/L
- LIPASE [3]: 9.6 u/L
- PHOSPHORUS [3]: 10.01 mg/dL
- POTASSIUM [3]: 6.57 MEQ/L
- SODIUM [3]: 149.5 MEQ/L
- TOTAL BILIRUBIN [3]: 0.21 mg/dL
- TOTAL PROTEIN [3]: 6.66 G/DL
- URIC ACID [3]: 1.26 mg/dL
- ABSOLUTE BASOPHIL [4]: 80 cells/µL
- ABSOLUTE EOSINOPHIL [4]: 74 cells/µL
- ABSOLUTE LYMPHOCYTE [4]: 8100 cells/µL
- ABSOLUTE MONOCYTE [4]: 240 cells/µL
- ABSOLUTE SEGMENTED NEUTROPHIL [4]: 1450 cells/µL
- BASOPHIL [4]: 0.76% and 0.38%
- EOSINOPHIL [4]: 0.78% and 0.9%
- ERYTHROCYTE COUNT [4]: 6.83 x10E6/uL and 7.91 x10E6/uL
- HEMATOCRIT [4]: 41.68% and 49.95%
- HEMOGLOBIN [4]: 15.98 G/DL
- LEUKOCYTE COUNT [4]: 10.02 x10E3/uL and 8.78 x10E3/uL
- LYMPHOCYTE [4]: 80.04% and 84.55%
- MEAN CORPUSCULAR HEMOGLOBIN [4]: 20.3 pg and 20.2 pg
- MEAN CORPUSCULAR HEMOGLOBIN CONCENTRATION [4]: 33.3 G/DL and 31.98 G/DL
- MEAN CORPUSCULAR VOLUME [4]: 61 fL
- MONOCYTE [4]: 2.58% and 2.52%
- NEUTROPHIL [4]: 15.12% and 10.23%
- PLATELET COUNT [4]: 1275.4 x10E3/uL and 1549.75 x10E3/uL
- ALANINE AMINOTRANSFERASE [4]: 28.6 u/L and 25 u/L
- ALBUMIN [4]: 3.36 G/DL and 4.35 G/DL
- ALKALINE PHOSPHATASE [4]: 214.2 u/L and 307.5 u/L
- ASPARTATE AMINOTRANSFERASE [4]: 87.2 u/L and 90.25 u/L
- BLOOD UREA NITROGEN [4]: 15 mg/dL and 15.25 mg/dL
- CARBON DIOXIDE [4]: 25.75 mmol/L
- CHLORIDE [4]: 107.4 MEQ/L
- CHOLESTEROL [4]: 60.8 mg/dL and 65.25 mg/dL
- CREATINE PHOSPHOKINASE [4]: 313.5 u/L and 416.75 u/L
- CREATININE [4]: 0.44 mg/dL and 0.45 mg/dL
- GLUCOSE [4]: 128 mg/dL and 118.5 mg/dL
- LACTATE DEHYDROGENASE [4]: 133.8 u/L and 153 u/L
